System: subjects with narcolepsy type-1 (NT1)
Assay: Part 4 POC NT1: treatment-emergent adverse events, single doses, crossover
Assay type: in vivo, human
Protocol: Subjects were randomized to 1 of 4 sequences.
Each subject received three doses of Compound A, including 1, 3, and 8 mg, and a single dose of placebo. […] All subjects underwent the washout period and completed all 4-way randomized crossover periods.
With one exception, each subject received three doses of Compound A, including 1, 3, and 8 mg, and a single dose of placebo. One patient withdrew from the study after the first dose due to venous access complications. […] With the exception of one patient as noted above, all subjects underwent the washout period and completed all 4-way randomized crossover periods.

## CS(=O)(=O)N[C@H]1CCCN2C(=O)COc3ccccc3C3CCC(CC3)OCC12 (stereo partly drawn) [Compound A, N-[(4S,4aR,7α,10α)-1,2,3,4,4a,5,7,8,9,10,16,17-dodecahydro-17-oxo-7,10-ethanopyrido[1,2-d][1,7,4]benzodioxaazacyclotridecin-4-yl]methanesulfonamide]
1 mg (N = 4)
  AE Leading to Study Drug Discontinuation: 0 n (%)
  Any SAEs: 0 n (%)
  Any TEAE: 1 (25.0) n (%)
  Death: 0 n (%)
  TEAE Anaemia: 0 n (%)
  TEAE Application site dermatitis: 1 (25.0) n (%)
  TEAE Blood pressure increased: 0 n (%)
  TEAE Bruxism: 0 n (%)
  TEAE Dermatitis contact: 0 n (%)
  TEAE Dizziness: 0 n (%)
  TEAE Hyperhidrosis: 0 n (%)
  TEAE Hyperlipidaemia: 0 n (%)
  TEAE Insomnia: 0 n (%)
  TEAE Pollakiuria: 0 n (%)
  TEAE Procedural anxiety: 0 n (%)
  TEAE Salivary hypersecretion: 0 n (%)
  TEAE Vascular access site injury: 0 n (%)
  TEAE Vessel puncture site bruise: 0 n (%)
  TEAE by Highest Relationship: Not Related: 1 (25.0) n (%)
  TEAE by Highest Relationship: Related: 0 n (%)
  TEAE by Highest Severity: Mild: 1 (25.0) n (%)
  TEAE by Highest Severity: Moderate: 0 n (%)
  TEAE by Highest Severity: Severe: 0 n (%)
1 mg (N = 9)
  AE Leading to Study Drug Discontinuation: 0 n (%)
  Any SAEs: 0 n (%)
  Any TEAE: 6 (66.7) n (%)
  Death: 0 n (%)
  TEAE Anaemia: 0 n (%)
  TEAE Application site dermatitis: 1 (11.1) n (%)
  TEAE Back pain: 0 n (%)
  TEAE Blood pressure increased: 0 n (%)
  TEAE Bruxism: 0 n (%)
  TEAE Decreased appetite: 1 (11.1) n (%)
  TEAE Dehydration: 1 (11.1) n (%)
  TEAE Dermatitis contact: 0 n (%)
  TEAE Dizziness: 1 (11.1) n (%)
  TEAE Haemoglobin decreased: 0 n (%)
  TEAE Headache: 0 n (%)
  TEAE Hyperhidrosis: 0 n (%)
  TEAE Hyperlipdaemia: 0 n (%)
  TEAE Insomnia: 0 n (%)
  TEAE Middle Insomnia: 0 n (%)
  TEAE Nausea: 2 (22.2) n (%)
  TEAE Pollakiuria: 0 n (%)
  TEAE Salivary hypersecretion: 1 (11.1) n (%)
  TEAE Sinus tachycardia: 1 (11.1) n (%)
  TEAE Vascular access site injury: 0 n (%)
  TEAE Vessel puncture site bruise: 0 n (%)
  TEAE Vessel puncture site pain: 0 n (%)
  TEAE by Highest Relationship: Not Related: 1 (11.1) n (%)
  TEAE by Highest Relationship: Related: 5 (55.6) n (%)
  TEAE by Highest Severity: Mild: 6 (66.7) n (%)
  TEAE by Highest Severity: Moderate: 0 n (%)
  TEAE by Highest Severity: Severe: 0 n (%)
3 mg (N = 4)
  AE Leading to Study Drug Discontinuation: 0 n (%)
  Any SAEs: 0 n (%)
  Any TEAE: 2 (50.0) n (%)
  Death: 0 n (%)
  TEAE Anaemia: 0 n (%)
  TEAE Application site dermatitis: 0 n (%)
  TEAE Blood pressure increased: 0 n (%)
  TEAE Bruxism: 0 n (%)
  TEAE Dermatitis contact: 1 (25.0) n (%)
  TEAE Dizziness: 0 n (%)
  TEAE Hyperhidrosis: 0 n (%)
  TEAE Hyperlipidaemia: 0 n (%)
  TEAE Insomnia: 0 n (%)
  TEAE Pollakiuria: 0 n (%)
  TEAE Procedural anxiety: 1 (25.0) n (%)
  TEAE Salivary hypersecretion: 0 n (%)
  TEAE Vascular access site injury: 1 (25.0) n (%)
  TEAE Vessel puncture site bruise: 1 (25.0) n (%)
  TEAE by Highest Relationship: Not Related: 2 (50.0) n (%)
  TEAE by Highest Relationship: Related: 0 n (%)
  TEAE by Highest Severity: Mild: 2 (50.0) n (%)
  TEAE by Highest Severity: Moderate: 0 n (%)
  TEAE by Highest Severity: Severe: 0 n (%)
3 mg (N = 9)
  AE Leading to Study Drug Discontinuation: 0 n (%)
  Any SAEs: 0 n (%)
  Any TEAE: 5 (55.6) n (%)
  Death: 0 n (%)
  TEAE Anaemia: 0 n (%)
  TEAE Application site dermatitis: 0 n (%)
  TEAE Back pain: 0 n (%)
  TEAE Blood pressure increased: 0 n (%)
  TEAE Bruxism: 0 n (%)
  TEAE Decreased appetite: 0 n (%)
  TEAE Dehydration: 0 n (%)
  TEAE Dermatitis contact: 2 (22.2) n (%)
  TEAE Dizziness: 0 n (%)
  TEAE Haemoglobin decreased: 0 n (%)
  TEAE Headache: 0 n (%)
  TEAE Hyperhidrosis: 0 n (%)
  TEAE Hyperlipdaemia: 0 n (%)
  TEAE Insomnia: 0 n (%)
  TEAE Middle Insomnia: 1 (11.1) n (%)
  TEAE Nausea: 0 n (%)
  TEAE Pollakiuria: 2 (22.2) n (%)
  TEAE Salivary hypersecretion: 1 (11.1) n (%)
  TEAE Sinus tachycardia: 0 n (%)
  TEAE Vascular access site injury: 1 (11.1) n (%)
  TEAE Vessel puncture site bruise: 1 (11.1) n (%)
  TEAE Vessel puncture site pain: 0 n (%)
  TEAE by Highest Relationship: Not Related: 2 (22.2) n (%)
